Measured values: patent US8546320B2, “Hsp9O-targeted anti-cancer chimeric peptide” (Kyoto University, priority 2008, dated 2013)
Where a SMILES comes first, the peptide text is derived from it.

Key:
[1] = test system: Caki-1; format: cell-based, human; conditions: Caki-1; for Anti-cancer activity (% relative to wild-type peptide) / Decrease in cell survival rate (% relative to wild-type peptide): wild-type peptide = 100%
Experimental: A total of 3×10^3 cells were inoculated per well on a 96 well plate and cultured in a medium containing 10% FBS for 24 hours, and incubated with 100 μl of a peptide having a gradual increase in concentration at 37° C. for 48 to 72 hours. The survival rate of the cells was measured by using WST-8 solution (Cell Count Reagent SF; Nacalai Tesque, Inc.).
(§1) Respective variant peptides were subjected to cell viability assay. Specifically, Caki-1 (American Type Culture Collection (Manassas, Va.) was inoculated in a total amount of 3×10^3 cells per well on a 96 well plate (Nunc™); the cells were cultured in a medium (DMEM (Tesque, Inc.) containing 10% FBS (fetal bovine serum; Biowest)) for 24 hours and incubated with 100 μl of a peptide having a gradual increase in concentration at 37° C. for 48 to 72 hours. The cell survival rate was measured by using WST-8 solution (Cell Count Reagent SF; Nacalai Tesque, Inc.) and compared with that of the wild-type Antp-TPR peptide.
as §1, with “medium” for “medium (DMEM (Tesque, Inc.)”, “FBS” for “FBS (fetal bovine serum; Biowest))”

[2] = test system: cancer cells; assay: Cell viability assay, summary statements on cancer cells; format: cell-based; conditions: single mutation in TPR or Antp region of Antp-TPR

Row | SMILES | Anti-cancer activity (% relative to wild-type peptide) [1] [%] | Decrease in cell survival rate (% relative to wild-type peptide) [1] [%] | effect compared with the wild-type protein (summary of mutations) [2] | killing effect compared with the wild-type peptide [1]
1 | CC[C@H](C)[C@H](NC(=O)[C@H](CCCNC(=N)N)NC(=O)[C@H](C)NC(=O)[C@H](Cc1ccc(O)cc1)NC(=O)[C@H](C)NC(=O)[C@H](CCCCN)NC(=O)[C@H](CCCCN)NC(=O)[C@H](CCCCN)NC(=O)[C@H](Cc1ccc(O)cc1)NC(=O)[C@H](CCCCN)NC(=O)[C@H](CCSC)NC(=O)[C@H](CCCNC(=N)N)NC(=O)[C@H](CCCNC(=N)N)NC(=O)[C@H](CC(N)=O)NC(=O)[C@H](CCC(N)=O)NC(=O)[C@H](Cc1ccccc1)NC(=O)[C@H](Cc1c[nH]c2ccccc12)NC(=O)[C@@H](NC(=O)[C@H](CCCCN)NC(=O)[C@@H](NC(=O)[C@H](CCC(N)=O)NC(=O)[C@@H](N)CCCNC(=N)N)[C@@H](C)CC)[C@@H](C)CC)C(=O)NCC(=O)N[C@@H](CC(N)=O)C(=O)N[C@@H](CO)C(=O)N[C@@H](Cc1ccc(O)cc1)C(=O)N[C@@H](Cc1ccccc1)C(=O)N[C@@H](CCCCN)C(=O)O [Antp W14Y-TPR] (H-RQIKIWFQNRRMKYKKKAYARIGNSYFK-OH; N-terminus and C-terminus assumed) | 83.36 | 41.80 | effect similar to that of the wild-type protein | 
2 | CC[C@H](C)[C@H](NC(=O)[C@H](CCCNC(=N)N)NC(=O)[C@H](C)NC(=O)[C@H](Cc1ccc(O)cc1)NC(=O)[C@H](C)NC(=O)[C@H](CCCCN)NC(=O)[C@H](CCCCN)NC(=O)[C@H](CCCCN)NC(=O)[C@H](Cc1c[nH]c2ccccc12)NC(=O)[C@H](CCCCN)NC(=O)[C@H](CCSC)NC(=O)[C@H](CCCNC(=N)N)NC(=O)[C@H](CCCNC(=N)N)NC(=O)[C@H](CC(N)=O)NC(=O)[C@H](CCC(N)=O)NC(=O)[C@H](Cc1ccc(O)cc1)NC(=O)[C@H](Cc1c[nH]c2ccccc12)NC(=O)[C@@H](NC(=O)[C@H](CCCCN)NC(=O)[C@@H](NC(=O)[C@H](CCC(N)=O)NC(=O)[C@@H](N)CCCNC(=N)N)[C@@H](C)CC)[C@@H](C)CC)C(=O)NCC(=O)N[C@@H](CC(N)=O)C(=O)N[C@@H](CO)C(=O)N[C@@H](Cc1ccc(O)cc1)C(=O)N[C@@H](Cc1ccccc1)C(=O)N[C@@H](CCCCN)C(=O)O [Antp F7Y-TPR] (H-RQIKIWYQNRRMKWKKKAYARIGNSYFK-OH; N-terminus and C-terminus assumed) | 29.86 | 14.56 | effective but with an effect lower than the wild-type protein | 
3 | CC[C@H](C)[C@H](NC(=O)[C@H](CCCNC(=N)N)NC(=O)[C@H](C)NC(=O)[C@H](Cc1ccc(O)cc1)NC(=O)[C@H](C)NC(=O)[C@H](CCCCN)NC(=O)[C@H](CCCCN)NC(=O)[C@H](CCCCN)NC(=O)[C@H](Cc1c[nH]c2ccccc12)NC(=O)[C@H](CCCCN)NC(=O)[C@H](CCSC)NC(=O)[C@H](CCCNC(=N)N)NC(=O)[C@H](CCCNC(=N)N)NC(=O)[C@H](CC(N)=O)NC(=O)[C@H](CCC(N)=O)NC(=O)[C@H](Cc1ccccc1)NC(=O)[C@H](Cc1ccc(O)cc1)NC(=O)[C@@H](NC(=O)[C@H](CCCCN)NC(=O)[C@@H](NC(=O)[C@H](CCC(N)=O)NC(=O)[C@@H](N)CCCNC(=N)N)[C@@H](C)CC)[C@@H](C)CC)C(=O)NCC(=O)N[C@@H](CC(N)=O)C(=O)N[C@@H](CO)C(=O)N[C@@H](Cc1ccc(O)cc1)C(=O)N[C@@H](Cc1ccccc1)C(=O)N[C@@H](CCCCN)C(=O)O [Antp W6Y-TPR] (H-RQIKIYFQNRRMKWKKKAYARIGNSYFK-OH; N-terminus and C-terminus assumed) | 32.99 | 15.14 | effective but with an effect lower than the wild-type protein | 
4 | CC[C@H](C)[C@H](NC(=O)[C@H](CCCNC(=N)N)NC(=O)[C@H](C)NC(=O)[C@H](Cc1ccc(O)cc1)NC(=O)[C@H](C)NC(=O)[C@H](CCCCN)NC(=O)[C@H](CCCCN)NC(=O)[C@H](CCCCN)NC(=O)[C@H](Cc1c[nH]c2ccccc12)NC(=O)[C@H](CCCCN)NC(=O)[C@H](CCSC)NC(=O)[C@H](CCCNC(=N)N)NC(=O)[C@H](CCCNC(=N)N)NC(=O)[C@H](CC(N)=O)NC(=O)[C@H](CCC(N)=O)NC(=O)[C@H](Cc1ccccc1)NC(=O)[C@H](Cc1c[nH]c2ccccc12)NC(=O)[C@@H](NC(=O)[C@H](CCCNC(=N)N)NC(=O)[C@@H](NC(=O)[C@H](CCC(N)=O)NC(=O)[C@@H](N)CCCNC(=N)N)[C@@H](C)CC)[C@@H](C)CC)C(=O)NCC(=O)N[C@@H](CC(N)=O)C(=O)N[C@@H](CO)C(=O)N[C@@H](Cc1ccc(O)cc1)C(=O)N[C@@H](Cc1ccccc1)C(=O)N[C@@H](CCCCN)C(=O)O [Antp K4R-TPR] (H-RQIRIWFQNRRMKWKKKAYARIGNSYFK-OH; N-terminus and C-terminus assumed) | 109.86 | 573.28 | effect higher than the wild-type protein | stronger than that of the wild-type peptide
5 | CC[C@H](C)[C@H](NC(=O)[C@H](CCCNC(=N)N)NC(=O)[C@H](C)NC(=O)[C@H](Cc1ccc(O)cc1)NC(=O)[C@H](C)NC(=O)[C@H](CCCCN)NC(=O)[C@H](CCCCN)NC(=O)[C@H](CCCNC(=N)N)NC(=O)[C@H](Cc1c[nH]c2ccccc12)NC(=O)[C@H](CCCCN)NC(=O)[C@H](CCSC)NC(=O)[C@H](CCCNC(=N)N)NC(=O)[C@H](CCCNC(=N)N)NC(=O)[C@H](CC(N)=O)NC(=O)[C@H](CCC(N)=O)NC(=O)[C@H](Cc1ccccc1)NC(=O)[C@H](Cc1c[nH]c2ccccc12)NC(=O)[C@@H](NC(=O)[C@H](CCCCN)NC(=O)[C@@H](NC(=O)[C@H](CCC(N)=O)NC(=O)[C@@H](N)CCCNC(=N)N)[C@@H](C)CC)[C@@H](C)CC)C(=O)NCC(=O)N[C@@H](CC(N)=O)C(=O)N[C@@H](CO)C(=O)N[C@@H](Cc1ccc(O)cc1)C(=O)N[C@@H](Cc1ccccc1)C(=O)N[C@@H](CCCCN)C(=O)O [Antp K15R-TPR] (H-RQIKIWFQNRRMKWRKKAYARIGNSYFK-OH; N-terminus and C-terminus assumed) | 110.21 | 687.99 | effect similar to that of the wild-type protein | stronger than that of the wild-type peptide
6 | CC[C@H](C)[C@H](NC(=O)[C@H](CCCNC(=N)N)NC(=O)[C@H](C)NC(=O)[C@H](Cc1ccc(O)cc1)NC(=O)[C@H](C)NC(=O)[C@H](CCCCN)NC(=O)[C@H](CCCCN)NC(=O)[C@H](CCCCN)NC(=O)[C@H](Cc1c[nH]c2ccccc12)NC(=O)[C@H](CCCCN)NC(=O)[C@H](CCSC)NC(=O)[C@H](CCCNC(=N)N)NC(=O)[C@H](CCCNC(=N)N)NC(=O)[C@H](CC(N)=O)NC(=O)[C@H](CCC(N)=O)NC(=O)[C@H](Cc1ccccc1)NC(=O)[C@H](Cc1c[nH]c2ccccc12)NC(=O)[C@@H](NC(=O)[C@H](CCCCN)NC(=O)[C@@H](NC(=O)[C@H](CCC(N)=O)NC(=O)[C@@H](N)CCCCN)[C@@H](C)CC)[C@@H](C)CC)C(=O)NCC(=O)N[C@@H](CC(N)=O)C(=O)N[C@@H](CO)C(=O)N[C@@H](Cc1ccc(O)cc1)C(=O)N[C@@H](Cc1ccccc1)C(=O)N[C@@H](CCCCN)C(=O)O [Antp-R1K-TPR] (H-KQIKIWFQNRRMKWKKKAYARIGNSYFK-OH; N-terminus and C-terminus assumed) | 64.10 | 24.98 | effective but with an effect lower than the wild-type protein | 
7 | CC[C@H](C)[C@H](NC(=O)[C@H](CCCNC(=N)N)NC(=O)[C@H](C)NC(=O)[C@H](Cc1ccc(O)cc1)NC(=O)[C@H](C)NC(=O)[C@H](CCCCN)NC(=O)[C@H](CCCCN)NC(=O)[C@H](CCCCN)NC(=O)[C@H](Cc1c[nH]c2ccccc12)NC(=O)[C@H](CCCCN)NC(=O)[C@H](CCSC)NC(=O)[C@H](CCCNC(=N)N)NC(=O)[C@H](CCCNC(=N)N)NC(=O)[C@H](CC(N)=O)NC(=O)[C@H](CCC(N)=O)NC(=O)[C@H](Cc1ccccc1)NC(=O)[C@H](Cc1c[nH]c2ccccc12)NC(=O)[C@@H](NC(=O)[C@H](CCCCN)NC(=O)[C@H](CC(C)C)NC(=O)[C@H](CCC(N)=O)NC(=O)[C@@H](N)CCCNC(=N)N)[C@@H](C)CC)C(=O)NCC(=O)N[C@@H](CC(N)=O)C(=O)N[C@@H](CO)C(=O)N[C@@H](Cc1ccc(O)cc1)C(=O)N[C@@H](Cc1ccccc1)C(=O)N[C@@H](CCCCN)C(=O)O [Antp 13L-TPR] (H-RQLKIWFQNRRMKWKKKAYARIGNSYFK-OH; N-terminus and C-terminus assumed) | 69.12 | 27.91 | effective but with an effect lower than the wild-type protein | 
